Assay results reported in patent US5770595A, “Oxime substituted therapeutic compounds” (Cell Therapeutics, Inc., priority 1994, dated 1998).

Key:
[1] = test system: MCF-7, Hurdlich, RAS and NIH-3T3 cells; experiment: cytotoxicity on several cell lines (BCECF viability); type: cell-based; conditions: 24 hours; FIG. 13
Protocol: Each inventive compound is investigated for cytotoxicity to determine appropriate doses for biological activity assays and to prevent cytotoxic reactions in in vitro assays when characterizing activity. Cells (e.g., NIH-3T3, Ras transformed 3T3 cells, malignant melanoma LD2 cells, etc.) are added to microtiter plates and drug is added about two days after plating. Cell viability is determined using a fluorescent viability slain (e.g., 2',7'-bis-(2-carboroxyethyl)-5-(and -6)-carboxyfluorescein acetoxymethyl ester, BCECF excitation 488 nm and emission 525 nm) 24, 48 or 72 hours after addition of the drug.
1522 is not cytotoxic to several cell lines. The cells lines used were MCF-7 a human breast cancer-derived line, Hurdlich cells a human stromal derived line, RAS a codon-12 transformed malignant murine line, and NIH-3T3 a non-Ras transformed parent line of RAS. The cells were treated with various concentrations of drug, and 24 hours later, stained for viability using BCECF and analyzed for fluorescent die uptake (indicating viable cells) using a fluorescence plate reader.

[2] = test system: PBMC (peripheral blood mononuclear cells); experiment: two-way mixed lymphocyte reaction; type: cell-based, human; conditions: FIG. 1; 6 days culture
Excerpt: Various in vitro assays can be used to measure effects of the inventive compounds to module immune activity and have antitumor activity using a variety of cellular types. For example, a mixed lymphocyte reaction (MLR) provides a valuable screening tool to determine biological activity of each inventive compound. In the MLR, PBMCs (peripheral blood mononuclear cells) are obtained by drawing whole blood from healthy volunteers in a heparinized container and diluted with an equal volume of hanks balanced salt solution (HBSS). This mixture is layered on a sucrose density gradient, such as a Ficoll-Hypaque® gradient (specific gravity 1.08), and centrifuged at 1000×g for 25 minutes at room temperature or cooler. PBMC are obtained from a band at a plasma-Ficoll interface, separated and washed at least twice in a saline solution, such as HBSS. Contaminating red cells are lysed, such as by ACK lysis for 10 min at 37° C., and the PBMCs are washed twice in HBSS. The pellet of purified PBMCs is resuspended in complete medium, such as RPMI 1640 plus 20% human inactivated serum. Proliferative response of PBMC to allogeneic stimulation is determined in a two-way MLR performed in a 96-well microtiter plate. Briefly, approximately 10^5 test purified PBMC cells in 200 μl complete medium are co-cultured with approximately 10^5 autologous (control culture) or allogeneic (stimulated culture) PBMC cells, wherein the allogeneic cells are from HLA disparate individuals. Varying doses of compounds (drug) are added at the time of addition of cells to the microtiter plate. The cultures are incubated for 6 days at 37° C. in a 5% CO2 atmosphere. At the conclusion of the incubation tritiated thymidine is added (for example, 1 μCi/well of 40 to 60 Ci/mmole) and proliferation determined by liquid scintillation. counting.
Example 10 illustrates a mixed lymphocyte reaction of inventive compounds nos. 1521 and 1522 (see above for chemical name and structure). […] Both compounds nos. […]

P388D1 cells = experiment: TNF-α release from LPS-stimulated P388D1 cells; type: cell-based, murine; conditions: 0.25 mM, LPS 10 μg/ml
Protocol: This example illustrates the ability of compound no. 1521 to inhibit TNF-α release from P388D1 cells (a murine monocyte/macrophage line) when stimulated with LPS. This assay is a model for septic shock. P388D1 cells (10^5) were treated with LPS at 10 μg/ml in RPMI media containing 10% fetal calf serum. Supernatants were assayed for TNF by an ELISA technique at various times following LPS stimulation. The cells were treated one hour prior to LPS stimulation with 0.25 mM compound no. 1521.

[3] = test system: U937 cells / activated human umbilical vein endothelial cells (HUVEC); experiment: adhesion of U937 cells to TNF-activated HUVEC; type: cell-based; conditions: human TNF 20 ng/ml, 12 hours
Protocol: Another assay measures the effects of drug to inhibit adhesion of U937 cells to TNF-activated HUVEC cells In this experiment, HUVEC cells are induced with human TNF-α (20 ng/ml) and drug at varying concentrations for 14-16 hrs. U937 cells (a human monocyte cell line) are incubated and labeled with BCECF (10 μg/ml), a fluorescent dye. The U937 cell preparation (2.5×10^4 cells per well) is layered on top of the activated HUVEC cells. The cells are reverse spun to remove partially adhering and nonadhering U937 cell. The adherent U937 cells are measured by fluorescence on a fluorescent plate reader.
1521 to inhibit adhesion of U937 cells to activated human umbilical vein endothelial cells (HUVEC). HUVEC cells were activated with 20 ng/ml of human TNF for 12 hours. Compound no. 1521 was added to samples one hour prior to adding TNF. U937 cells preloaded with a fluorescent dye were added to the HUVEC cells and adhesion measured after washing. Compound no. […] Background adhesion of U937 cells to non-activated HUVEC is shown as a dashed line.

[4] = test system: murine peritoneal macrophages; experiment: TNF-α release from LPS-stimulated murine peritoneal macrophages; type: cell-based; conditions: 0.25 mM, LPS 10 μg/ml
Protocol: This example illustrates the ability of inventive compound no. 1521 to inhibit TNF-α release from murine peritoneal macrophages when stimulated with LPS. This assay is a model for septic shock. Macrophages (10^5) were treated with LPS at 10 μg/ml in RPMI media containing 10% fetal calf serum. Supernatants were assayed for TNF by an ELISA technique at various times following LPS stimulation. The cells were treated one hour prior to LPS stimulation with 0.25 mM of inventive compound no. 1521.

L929 cells = experiment: TNF-α-mediated cytotoxicity in L929 cells; type: cell-based, murine; conditions: human TNF-α 300 pg/ml; FIG. 9
Protocol: An inventive compound can be assayed for activity protecting TNF-mediated cytotoxicity. In this assay, L929 murine fibroblast cells (10^4 cells per well) are incubated with either compounds at varying doses and media control for two hrs. […] The cells plus (or minus) drug plus TNF were incubated for 40 hrs at 37° C. The media is removed and replaced with fresh media containing 2% serum and 10 μg/ml of BCECF fluorescent dye and incubated for 30 min. The fluorescent dye-containing media is removed and replaced with PBS (phosphate buffered saline) and each well was assayed for fluorescence.
This assay is a model for septic shock. L929 cells (10^5) were treated with human TNF-α at 300 pg/ml in RPMI media containing 10% fetal calf serum with or without compound no. One day later, the cells were stained for viability using the fluorescent dye BCECF and fluorescence of the samples was analyzed using a Milipore plate reader.

SMILES	cytotoxicity (viability by BCECF) [1]	proliferative response of PBMC to allogeneic stimulation (MLR) [2]	inhibition of TNF-α release (P388D1 cells)	adhesion of U937 cells to activated HUVEC [3]	inhibition of TNF-α release [4]	protection of L929 cells from TNF-induced cytotoxicity (L929 cells)
CON=C(C)CCCCn1c(=O)c2c(ncn2C)n(C)c1=O [Compound no. 1522]	non-toxic at therapeutic concentrations	showed activity in this immune modulating activity assay procedure	–	–	–	–
CC(CCCCn1c(=O)c2c(ncn2C)n(C)c1=O)=NO [Compound no. 1521]	–	showed activity in this immune modulating activity assay procedure	inhibited TNF release	reduced adhesion	inhibited TNF release	inhibited TNF-induced cytotoxicity in a dose dependent manner
